The supplement of paper PMC10307832

Key:
Experiment in all cases: relative viability (nuclei count vs DMSO), 5 days (fraction); higher = more cells survive
[1] = compound: CC1(C)CCC(CN2CCN(c3ccc(C(=O)NS(=O)(=O)c4ccc(NCC5CCOCC5)c([N+](=O)[O-])c4)c(Oc4cnc5[nH]ccc5c4)c3)CC2)=C(c2ccc(Cl)cc2)C1 [Venetoclax] + O=C(c1cc(Cc2n[nH]c(=O)c3ccccc23)ccc1F)N1CCN(C(=O)C2CC2)CC1 [Olaparib] (partner 8 µM)
Summary of the method: (§1)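 One day after seeding in 1536-well plates, lung cancer cell lines were dosed by pin tool. Dosing was either single-drug or a fixed anchor-drug dose plus five library-drug doses (not always all listed) in √10 steps. After 5 days, nuclei were stained in one fix-and-stain step and counted on 4× images, and relative viability is the nuclei count of treated wells over that of vehicle wells, given as the median of duplicate plates.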

[2] = compound: Cn1cnc2c(F)c(Nc3ccc(Br)cc3Cl)c(C(=O)NOCCO)cc21 [Selumetinib] + O=C(CCCCCCC(=O)Nc1ccccc1)NO [Vorinostat] (partner 1 µM)
Summary of the method: as §1

[3] = compound: CC1(C)CCC(CN2CCN(c3ccc(C(=O)NS(=O)(=O)c4ccc(NCC5CCOCC5)c([N+](=O)[O-])c4)c(Oc4cnc5[nH]ccc5c4)c3)CC2)=C(c2ccc(Cl)cc2)C1 [Venetoclax] + Nc1nc2[nH]cc(CCc3ccc(C(=O)N[C@@H](CCC(=O)O)C(=O)O)cc3)c2c(=O)[nH]1 [Pemetrexed] (partner 0.2 µM)
Summary of the method: as §1

[4] = compound: Cn1cnc2c(F)c(Nc3ccc(Br)cc3Cl)c(C(=O)NOCCO)cc21 [Selumetinib] + CS(=O)(=O)N1CCN(Cc2cc3nc(-c4cccc5[nH]ncc45)nc(N4CCOCC4)c3s2)CC1 [Pictilisib] (partner 1 µM)
Summary of the method: as §1

LCLC-97TM1 showed a relative viability ([1]; first compound 0.01 µM) of 0.242, a relative viability ([1]; first compound 0.03162 µM) of 0.297 and a relative viability ([1]; first compound 0.1 µM) of 0.37. For the same cell line, the relative viability ([1]; first compound 0.3162 µM) was 0.323, the relative viability ([1]; first compound 1 µM) was 0.365 and the relative viability ([2]; first compound 0.02 µM) was 0.925. The relative viability ([2]; first compound 0.06325 µM) was 0.714, the relative viability ([2]; first compound 0.2 µM) was 0.661 and the relative viability ([2]; first compound 0.6325 µM) was 0.437. For the same cell line, the relative viability ([3]; first compound 0.01 µM) was 0.165, the relative viability ([3]; first compound 0.03162 µM) was 0.182 and the relative viability ([3]; first compound 0.1 µM) was 0.167. It also gave a relative viability ([3]; first compound 0.3162 µM) of 0.163, a relative viability ([3]; first compound 1 µM) of 0.153 and a relative viability ([4]; first compound 0.02 µM) of 0.212. It also gave a relative viability ([4]; first compound 0.06325 µM) of 0.161, a relative viability ([4]; first compound 0.2 µM) of 0.158 and a relative viability ([4]; first compound 0.6325 µM) of 0.125.
Work on LCLC-103H yielded a relative viability ([1]; first compound 0.01 µM) of 0.778, a relative viability ([1]; first compound 0.03162 µM) of 0.846 and a relative viability ([1]; first compound 0.1 µM) of 0.783. The relative viability ([1]; first compound 0.3162 µM) was 0.787, the relative viability ([1]; first compound 1 µM) was 0.752 and the relative viability ([2]; first compound 0.02 µM) was 0.811. The relative viability ([2]; first compound 0.06325 µM) was 0.768, the relative viability ([2]; first compound 0.2 µM) was 0.712 and the relative viability ([2]; first compound 0.6325 µM) was 0.691. The relative viability ([3]; first compound 0.01 µM) was 0.447, the relative viability ([3]; first compound 0.03162 µM) was 0.432 and the relative viability ([3]; first compound 0.1 µM) was 0.448. For the same cell line, the relative viability ([3]; first compound 0.3162 µM) was 0.43, the relative viability ([3]; first compound 1 µM) was 0.447 and the relative viability ([4]; first compound 0.02 µM) was 0.551. For the same cell line, the relative viability ([4]; first compound 0.06325 µM) was 0.655, the relative viability ([4]; first compound 0.2 µM) was 0.545 and the relative viability ([4]; first compound 0.6325 µM) was 0.53.
LK-2 was tested, and the relative viability ([1]; first compound 0.01 µM) was 0.934, the relative viability ([1]; first compound 0.03162 µM) was 0.98 and the relative viability ([1]; first compound 0.1 µM) was 0.848. The relative viability ([1]; first compound 0.3162 µM) was 0.619, the relative viability ([1]; first compound 1 µM) was 0.716 and the relative viability ([2]; first compound 0.02 µM) was 0.296. For the same cell line, the relative viability ([2]; first compound 0.06325 µM) was 0.288, the relative viability ([2]; first compound 0.2 µM) was 0.296 and the relative viability ([2]; first compound 0.6325 µM) was 0.711. The relative viability ([3]; first compound 0.01 µM) was 0.331, the relative viability ([3]; first compound 0.03162 µM) was 0.381 and the relative viability ([3]; first compound 0.1 µM) was 0.255. It also gave a relative viability ([3]; first compound 0.3162 µM) of 0.249, a relative viability ([3]; first compound 1 µM) of 0.227 and a relative viability ([4]; first compound 0.02 µM) of 0.761. It also gave a relative viability ([4]; first compound 0.06325 µM) of 0.547, a relative viability ([4]; first compound 0.2 µM) of 0.565 and a relative viability ([4]; first compound 0.6325 µM) of 0.544.
LOU-NH91 was tested, and the relative viability ([1]; first compound 0.01 µM) was 0.821, the relative viability ([1]; first compound 0.03162 µM) was 0.88 and the relative viability ([1]; first compound 0.1 µM) was 0.965. For the same cell line, the relative viability ([1]; first compound 0.3162 µM) was 0.919, the relative viability ([1]; first compound 1 µM) was 0.856 and the relative viability ([2]; first compound 0.02 µM) was 0.889. For the same cell line, the relative viability ([2]; first compound 0.06325 µM) was 0.88, the relative viability ([2]; first compound 0.2 µM) was 0.843 and the relative viability ([2]; first compound 0.6325 µM) was 0.874. The relative viability ([3]; first compound 0.01 µM) was 0.362, the relative viability ([3]; first compound 0.03162 µM) was 0.365 and the relative viability ([3]; first compound 0.1 µM) was 0.392. It also gave a relative viability ([3]; first compound 0.3162 µM) of 0.327, a relative viability ([3]; first compound 1 µM) of 0.337 and a relative viability ([4]; first compound 0.02 µM) of 0.503. The relative viability ([4]; first compound 0.06325 µM) was 0.496, the relative viability ([4]; first compound 0.2 µM) was 0.523 and the relative viability ([4]; first compound 0.6325 µM) was 0.539.
